PMC11941926, “Identification of Antimicrobial Peptides from Nibribacter radioresistens, a UV and Gamma Radiation Tolerant Bacterium” (Genes, 2025)
No end group written: not given here.

Tests used:
[1] = system: Staphylococcus aureus (SA, ATCC 6538); assay: Antibacterial activity of synthetic NB_AMPs, microtiter plate method (MIC); type: cell-based
Method: (§1) The cell-free supernatant of all E. coli DH5α strains containing cloned AMPs was collected after 24 h of culture and filtered through a 0.2 μm syringe (mixed cellulose esters (MCE), Merck, Darmstadt, Germany), and finally the cell-free supernatant was used for the evaluation of antibacterial activity. The cell-free supernatant from the E. coli DH5α, harboring only the plasmid vector without the NB_AMP genes, was confirmed as a negative control to have very little effect on antibacterial activities. The synthesized AMPs were suspended at a concentration of 10 mg/mL in distilled water and then used for antibacterial activity. The antibacterial activity against the Gram-negative bacterium, E. coli (EC; ATCC 10536), and the Gram-positive bacterium, Staphylococcus aureus (SA, ATCC 6538), was analyzed using the microtiter plate method and expressed as minimal inhibition concentration (MIC); the bacteria pre-cultured overnight (O/N) were cultured at 10^6 CFU/mL with the cell-free supernatant or the synthetic peptides, the reaction mixtures were added to the microtiter plate, and finally the reactivity was observed by O/N culture at 37 °C.

[2] = system: E. coli (EC; ATCC 10536); assay: as above; type: cell-based, Escherichia coli
Method: as §1

[3] = synthetic peptides, microtiter plate, 10^6 CFU/mL, O/N culture at 37 °C, peptide stock 10 mg/mL in distilled water

| Sequence | MIC50 against S. aureus ([1]; ATCC 6538, 24 h) | MIC50 against E. coli ([2]; ATCC 10536, 24 h) | MIC50 against S. aureus [1, 3] | MIC50 against E. coli [2, 3] |
| --- | --- | --- | --- | --- |
| FFGRFKKEK [NB_AMP10] | 2110 µg/mL | 2600 µg/mL | – | – |
| WQEIKNSLEDLSDSI [NB_AMP4] | – | – | 2950 µg/mL | 4960 µg/mL |
| NYKLLSNSLNILL [NB_AMP8] | – | – | 8360 µg/mL | – |
| NTLSSIASLLKK [NB_AMP5] | 3240 µg/mL | 10210 µg/mL | – | – |
| GLQKYLSWVKNKRL [NB_AMP2] | – | – | 230 µg/mL | 170 µg/mL |
| KKLAAKEKAAAAKEKEAAKKAAAKEKK [NB_AMP9] | – | – | 5050 µg/mL | – |
| KGAKKAGKAVKKTVKK [NB_AMP3] | – | – | 2880 µg/mL | 3430 µg/mL |
| GQYNQGGYGSQGGDYGQGGYGQGSMGGGYG [NB_AMP6] | – | – | 5830 µg/mL | 9430 µg/mL |
